# Columns and labels:
# [1] = tested on: persian speedwell; assay: Test Example 5: herbicidal effect by foliage application, plastic box (Table 20, symbol R); format: in vivo, Persian speedwell (Veronica persica); settings: foliage application, three weeks after application
# Method in brief: (§1)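 Plants were sown into sterilized diluvial soil under about 1.5 cm cover and kept in a greenhouse at 25° C. to 30° C. Fourteen days on, foliage received an even spray of the diluted emulsion. Herbicidal or crop effect was judged three weeks afterwards.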
# [2] = tested on: rice flat sedge; assay: Test Example 3: herbicidal effect by foliage application, Wagner pot (Table 18, symbol E); format: in vivo, rice flat sedge (Cyperus iria); settings: for herbicidal effect on E (rice flat sedge), rating 0-5: 320 g/ha
# Method in brief: (§2)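 Plants were sown in alluvial soil held under 0.1–0.5 cm standing water and grown 14 days in a greenhouse at 25–30 °C. An emulsifiable formulation, water-diluted to the set dose, was then sprayed onto the foliage, and effects were scored three weeks later using previously defined criteria.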
# [3] = tested on: windgrass; assay: Test Example 5: herbicidal effect by foliage application, plastic box (Table 20, symbol L); format: in vivo, windgrass (Apera spica-venti); settings: foliage application, three weeks after application
# Method in brief: as §1
# [4] = tested on: barnyard grass; assay: Test Example 3: herbicidal effect by foliage application, Wagner pot (Table 18, symbol H); format: in vivo, barnyard grass (Echinochloa crus-galli); settings: for herbicidal effect on H (barnyard grass), rating 0-5: 320 g/ha
# Method in brief: as §2
# [5] = tested on: barnyard grass; assay: Test Example 5: herbicidal effect by foliage application, plastic box (Table 20, symbol H); format: in vivo, barnyard grass (Echinochloa crus-galli); settings: foliage application, three weeks after application
# Method in brief: as §1
# [6] = tested on: Italian ryegrass; assay: Test Example 5: herbicidal effect by foliage application, plastic box (Table 20, symbol K); format: in vivo, Italian ryegrass (Lolium multiflorum); settings: foliage application, three weeks after application
# Method in brief: as §1
# [7] = tested on: Chinese sprangletop; assay: Test Example 3: herbicidal effect by foliage application, Wagner pot (Table 18, symbol D); format: in vivo, chinese sprangletop (Leptochloa chinensis); settings: for herbicidal effect on D (Chinese sprangletop), rating 0-5: 320 g/ha
# Method in brief: as §2
# [8] = tested on: late watergrass; assay: Test Example 1: herbicidal activity, application before weed generation under submerged conditions (Table 16, symbol A); format: in vivo, late watergrass (Echinochloa oryzicola); settings: for Herbicidal effect on A: late watergrass (grade 0-5): 320 g/ha applied herbicide
# Method in brief: (§3)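 Submerged Wagner pots (alluvial soil, 4 cm water) sown with weed seeds and planted with 2.5-leaf rice seedlings; emulsifiable concentrate diluted in water applied to water surface on sowing day. Held in greenhouse at 25-30 °C; injury scored 0-5 by herbicidal rate after three weeks.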
# [9] = tested on: velvetleaf; assay: Test Example 5: herbicidal effect by foliage application, plastic box (Table 20, symbol M); format: in vivo, velvetleaf (Abutilon theophrasti); settings: foliage application, three weeks after application
# Method in brief: as §1
# [10] = tested on: blackgrass; assay: Test Example 5: herbicidal effect by foliage application, plastic box (Table 20, symbol J); format: in vivo, blackgrass (Alopecurus myosuroides); settings: foliage application, three weeks after application
# Method in brief: as §1
# [11] = tested on: wild oat; assay: Test Example 5: herbicidal effect by foliage application, plastic box (Table 20, symbol I); format: in vivo, wild oat (Avena fatua); settings: foliage application, three weeks after application
# Method in brief: as §1
# [12] = tested on: lambsquarters; assay: Test Example 5: herbicidal effect by foliage application, plastic box (Table 20, symbol O); format: in vivo, lambsquarters (Chenopodium album); settings: foliage application, three weeks after application
# Method in brief: as §1
# [13] = tested on: false cleavers; assay: Test Example 5: herbicidal effect by foliage application, plastic box (Table 20, symbol Q); format: in vivo, false cleavers (Galium spurium); settings: foliage application, three weeks after application
# Method in brief: as §1
# [14] = tested on: chickweed; assay: Test Example 5: herbicidal effect by foliage application, plastic box (Table 20, symbol P); format: in vivo, common chickweed (Stellaria media); settings: foliage application, three weeks after application
# Method in brief: as §1
# [15] = tested on: oval-leafed pondweed; assay: Test Example 1: herbicidal activity, application before weed generation under submerged conditions (Table 16, symbol C); format: in vivo, oval-leafed pondweed (Monochoria vaginalis); settings: for Herbicidal effect on C: oval-leafed pondweed (grade 0-5): 320 g/ha applied herbicide
# Method in brief: as §3
# [16] = tested on: Japanese bulrush; assay: Test Example 1: herbicidal activity, application before weed generation under submerged conditions (Table 16, symbol B); format: in vivo, Japanese bulrush (Schoenoplectus juncoides); settings: for Herbicidal effect on B: Japanese bulrush (grade 0-5): 320 g/ha applied herbicide
# Method in brief: as §3
# [17] = tested on: southern crabgrass; assay: Test Example 5: herbicidal effect by foliage application, plastic box (Table 20, symbol F); format: in vivo, southern crabgrass (Digitaria ciliaris); settings: foliage application, three weeks after application
# Method in brief: as §1
# [18] = tested on: green foxtail; assay: Test Example 5: herbicidal effect by foliage application, plastic box (Table 20, symbol G); format: in vivo, green foxtail (Setaria viridis); settings: foliage application, three weeks after application
# Method in brief: as §1
# [19] = tested on: redroot pigweed; assay: Test Example 5: herbicidal effect by foliage application, plastic box (Table 20, symbol N); format: in vivo, redroot pigweed (Amaranthus retroflexus); settings: foliage application, three weeks after application
# Method in brief: as §1
# [20] = amount of applied herbicide 45 g/ha
# [21] = amount of applied herbicide 49 g/ha
smiles,measurement,setting,value
COc1ccc(-c2sc3ccccc3c2-c2c(O)c(C)nn(C)c2=O)c(OC)c1 [1-070],"herbicidal effect grade, R: persian speedwell",[1]; 320 g/ha,4 (Herbicidal rate of 70% or more and less than 90%)
same,"herbicidal effect on E (rice flat sedge), rating 0-5",[2],3 (Herbicidal rate of 40% or more and less than 70%)
same,"herbicidal effect grade, L: windgrass",[3]; 320 g/ha,3 (Herbicidal rate of 40% or more and less than 70%)
same,"herbicidal effect on H (barnyard grass), rating 0-5",[4],1 (Herbicidal rate of 5% or more and less than 20%)
same,"herbicidal effect grade, H: barnyard grass",[5]; 320 g/ha,0 (Herbicidal rate of 5% or less (almost no effect))
same,"herbicidal effect grade, K: Italian ryegrass",[6]; 320 g/ha,1 (Herbicidal rate of 5% or more and less than 20%)
same,"herbicidal effect on D (Chinese sprangletop), rating 0-5",[7],0 (Herbicidal rate of 5% or less (almost no effect))
same,Herbicidal effect on A: late watergrass (grade 0-5),[8],3 (Herbicidal rate of 40% or more and less than 70%)
same,"herbicidal effect grade, M: velvetleaf",[9]; 320 g/ha,2 (Herbicidal rate of 20% or more and less than 40%)
same,"herbicidal effect grade, J: blackgrass",[10]; 320 g/ha,0 (Herbicidal rate of 5% or less (almost no effect))
same,"herbicidal effect grade, I: wild oat",[11]; 320 g/ha,1 (Herbicidal rate of 5% or more and less than 20%)
same,"herbicidal effect grade, O: lambsquarters",[12]; 320 g/ha,0 (Herbicidal rate of 5% or less (almost no effect))
same,"herbicidal effect grade, Q: false cleavers",[13]; 320 g/ha,2 (Herbicidal rate of 20% or more and less than 40%)
same,"herbicidal effect grade, P: chickweed",[14]; 320 g/ha,5 (Herbicidal rate of 90% or more (almost completely withered))
same,Herbicidal effect on C: oval-leafed pondweed (grade 0-5),[15],1 (Herbicidal rate of 5% or more and less than 20%)
same,Herbicidal effect on B: Japanese bulrush (grade 0-5),[16],3 (Herbicidal rate of 40% or more and less than 70%)
same,"herbicidal effect grade, F: southern crabgrass",[17]; 320 g/ha,3 (Herbicidal rate of 40% or more and less than 70%)
same,"herbicidal effect grade, G: green foxtail",[18]; 320 g/ha,3 (Herbicidal rate of 40% or more and less than 70%)
Cc1nn(C)c(=O)c(-c2c(-c3ccccc3OCC3CC3(F)F)sc3ccccc23)c1O (centres unmarked) [1-120],"R: persian speedwell, herbicidal effect",[1]; AAH 320 g/ha,5 (Herbicidal rate of 90% or more (almost completely withered))
same,"herbicidal effect on E (rice flat sedge), rating 0-5",[2],2 (Herbicidal rate of 20% or more and less than 40%)
same,"L: windgrass, herbicidal effect",[3]; AAH 320 g/ha,0 (Herbicidal rate of 5% or less (almost no effect))
same,"herbicidal effect on H (barnyard grass), rating 0-5",[4],3 (Herbicidal rate of 40% or more and less than 70%)
same,"H: barnyard grass, herbicidal effect",[5]; AAH 320 g/ha,0 (Herbicidal rate of 5% or less (almost no effect))
same,"K: Italian ryegrass, herbicidal effect",[6]; AAH 320 g/ha,0 (Herbicidal rate of 5% or less (almost no effect))
same,"herbicidal effect on D (Chinese sprangletop), rating 0-5",[7],0 (Herbicidal rate of 5% or less (almost no effect))
same,Herbicidal effect on A: late watergrass (grade 0-5),[8],3 (Herbicidal rate of 40% or more and less than 70%)
same,"M: velvetleaf, herbicidal effect",[9]; AAH 320 g/ha,0 (Herbicidal rate of 5% or less (almost no effect))
same,"J: blackgrass, herbicidal effect",[10]; AAH 320 g/ha,2 (Herbicidal rate of 20% or more and less than 40%)
same,"I: wild oat, herbicidal effect",[11]; AAH 320 g/ha,0 (Herbicidal rate of 5% or less (almost no effect))
same,"O: lambsquarters, herbicidal effect",[12]; AAH 320 g/ha,0 (Herbicidal rate of 5% or less (almost no effect))
same,"Q: false cleavers, herbicidal effect",[13]; AAH 320 g/ha,3 (Herbicidal rate of 40% or more and less than 70%)
same,"N: redroot pigweed, herbicidal effect",[19]; AAH 320 g/ha,0 (Herbicidal rate of 5% or less (almost no effect))
same,"P: chickweed, herbicidal effect",[14]; AAH 320 g/ha,4 (Herbicidal rate of 70% or more and less than 90%)
same,Herbicidal effect on C: oval-leafed pondweed (grade 0-5),[15],0 (Herbicidal rate of 5% or less (almost no effect))
same,Herbicidal effect on B: Japanese bulrush (grade 0-5),[16],0 (Herbicidal rate of 5% or less (almost no effect))
same,"F: southern crabgrass, herbicidal effect",[17]; AAH 320 g/ha,0 (Herbicidal rate of 5% or less (almost no effect))
same,"G: green foxtail, herbicidal effect",[18]; AAH 320 g/ha,0 (Herbicidal rate of 5% or less (almost no effect))
CCCC(=O)Oc1c(C)nn(C)c(=O)c1-c1c(-c2ccc(C(C)=NOC)cc2)sc2cc(F)ccc12 [3-018],"R: persian speedwell, herbicidal effect grade",[1]; 45 g/ha,3 (Herbicidal rate of 40% or more and less than 70%)
same,herbicidal effect on E: rice flat sedge,[2]; [20],2 (Herbicidal rate of 20% or more and less than 40%)
same,"L: windgrass, herbicidal effect grade",[3]; 45 g/ha,0 (Herbicidal rate of 5% or less (almost no effect))
same,herbicidal effect on H: barnyard grass,[4]; [20],3 (Herbicidal rate of 40% or more and less than 70%)
same,"H: barnyard grass, herbicidal effect grade",[5]; 45 g/ha,0 (Herbicidal rate of 5% or less (almost no effect))
same,"K: Italian ryegrass, herbicidal effect grade",[6]; 45 g/ha,0 (Herbicidal rate of 5% or less (almost no effect))
same,herbicidal effect on D: Chinese sprangletop,[7]; [20],0 (Herbicidal rate of 5% or less (almost no effect))
same,"Herbicidal effect, A: late watergrass",[8]; [21],3 (Herbicidal rate of 40% or more and less than 70%)
same,"M: velvetleaf, herbicidal effect grade",[9]; 45 g/ha,0 (Herbicidal rate of 5% or less (almost no effect))
same,"J: blackgrass, herbicidal effect grade",[10]; 45 g/ha,0 (Herbicidal rate of 5% or less (almost no effect))
same,"I: wild oat, herbicidal effect grade",[11]; 45 g/ha,0 (Herbicidal rate of 5% or less (almost no effect))
same,"O: lambsquarters, herbicidal effect grade",[12]; 45 g/ha,1 (Herbicidal rate of 5% or more and less than 20%)
same,"Q: false cleavers, herbicidal effect grade",[13]; 45 g/ha,0 (Herbicidal rate of 5% or less (almost no effect))
same,"N: redroot pigweed, herbicidal effect grade",[19]; 45 g/ha,3 (Herbicidal rate of 40% or more and less than 70%)
same,"P: chickweed, herbicidal effect grade",[14]; 45 g/ha,1 (Herbicidal rate of 5% or more and less than 20%)
same,"Herbicidal effect, C: oval-leafed pondweed",[15]; [21],0 (Herbicidal rate of 5% or less (almost no effect))
same,"Herbicidal effect, B: Japanese bulrush",[16]; [21],2 (Herbicidal rate of 20% or more and less than 40%)
same,"F: southern crabgrass, herbicidal effect grade",[17]; 45 g/ha,0 (Herbicidal rate of 5% or less (almost no effect))
same,"G: green foxtail, herbicidal effect grade",[18]; 45 g/ha,0 (Herbicidal rate of 5% or less (almost no effect))
